Common to all, as to assay: prolyl hydroxylation assay of HIF-1α peptide, VBC binding by fluorescence polarization
Holding throughout (assay type): biochemical
In general terms: Polarisation of emitted light reports the rotation of a fluorescent probe.

Experiment [1] addresses T1, HIF-PHD3 (Homo sapiens, UniProt Q9H6Z9).
T1 construct: gene EGLN3

For experiment [2], the target named is T2, HIF-PHD1 (Homo sapiens, UniProt Q96KS0).
T2 construct: gene EGLN2

The target in experiment [3] is T3, HIF-PHD2 (Homo sapiens, UniProt Q9GZT9).
T3 construct: gene EGLN1
T3 sequence (Q9GZT9 2-426): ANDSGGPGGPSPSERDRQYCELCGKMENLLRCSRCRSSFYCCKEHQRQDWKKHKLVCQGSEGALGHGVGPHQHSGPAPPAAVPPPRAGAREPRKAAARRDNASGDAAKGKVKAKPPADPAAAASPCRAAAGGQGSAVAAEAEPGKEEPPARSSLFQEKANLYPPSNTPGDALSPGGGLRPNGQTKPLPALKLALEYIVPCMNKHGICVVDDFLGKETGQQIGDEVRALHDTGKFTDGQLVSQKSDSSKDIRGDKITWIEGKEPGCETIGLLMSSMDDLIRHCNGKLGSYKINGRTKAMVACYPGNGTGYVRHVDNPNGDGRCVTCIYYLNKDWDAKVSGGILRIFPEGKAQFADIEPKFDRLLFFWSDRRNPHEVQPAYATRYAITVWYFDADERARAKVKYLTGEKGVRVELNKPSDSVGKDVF

T2 sequence (Q96KS0 whole entry): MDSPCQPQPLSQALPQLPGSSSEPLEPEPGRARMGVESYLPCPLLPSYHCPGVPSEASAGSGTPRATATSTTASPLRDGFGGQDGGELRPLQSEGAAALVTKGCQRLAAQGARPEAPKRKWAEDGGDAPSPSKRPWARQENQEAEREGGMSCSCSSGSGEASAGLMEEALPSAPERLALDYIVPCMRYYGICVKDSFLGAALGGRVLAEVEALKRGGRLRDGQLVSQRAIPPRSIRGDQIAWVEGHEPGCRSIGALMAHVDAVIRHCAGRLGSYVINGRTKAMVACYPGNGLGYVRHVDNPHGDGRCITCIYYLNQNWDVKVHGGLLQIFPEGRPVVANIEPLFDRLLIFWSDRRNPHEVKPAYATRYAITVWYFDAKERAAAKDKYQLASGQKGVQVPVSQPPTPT
T1 sequence (Q9H6Z9 whole entry): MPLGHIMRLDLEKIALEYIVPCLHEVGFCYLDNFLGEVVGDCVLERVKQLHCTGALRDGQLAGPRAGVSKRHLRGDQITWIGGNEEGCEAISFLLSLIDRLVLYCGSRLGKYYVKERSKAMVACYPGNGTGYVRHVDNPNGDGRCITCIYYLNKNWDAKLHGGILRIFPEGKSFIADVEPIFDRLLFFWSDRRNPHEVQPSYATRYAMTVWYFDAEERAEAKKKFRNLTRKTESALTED

The IC50 is the concentration that gives 50% inhibition. High values mean weaker potency, low ones greater potency. On to CG-598, for which the results for the concentration for half-maximal inhibition (IC50) in experiment [1], in experiment [2] and in experiment [3] were 0.08 µM, 0.03 µM and 0.02 µM, respectively.

Source of the values: paper PMC7840603, “Local Stabilization of Hypoxia-Inducible Factor-1α Controls Intestinal Inflammation via Enhanced Gut Barrier Function and Immune Regulation” (Frontiers in Immunology, 2021).
